Assays:
[1] = AUC (0 to 24 hrs) in human at 6.7 mg/kg, po qd for 6 days administered under fed condition measured after 6 days; type: ADME, organism-based; design: time < 24 hr, dose 6.7 mg/kg, route oral; settings: plasma
[2] = AUC (0 to 24 hrs) in monkeypox virus infected cynomolgus monkey at 10 mg/kg, po administered as single dose under fed condition measured after 1 day; type: ADME, organism-based, Macaca fascicularis; design: time < 24 hr, dose 10 mg/kg, route oral; settings: plasma
[3] = AUC (0 to 24 hrs) in monkeypox virus infected cynomolgus monkey at 30 mg/kg, po qd for 14 days administered under fed condition measured after 7 days; type: ADME, organism-based, Macaca fascicularis; design: time < 24 hr, dose 30 mg/kg, route oral; settings: plasma
[4] = AUC (0 to 24 hrs) in human at 4.2 mg/kg, po qd for 6 days administered under fed condition measured after 6 days; type: ADME, organism-based; design: time < 24 hr, dose 4.2 mg/kg, route oral; settings: plasma
[5] = AUC (0 to 24 hrs) in human at 4.2 mg/kg, po administered as single dose under fed condition measured after 1 day; type: ADME, organism-based; design: time < 24 hr, dose 4.2 mg/kg, route oral; settings: plasma
[6] = Cmax in human at 13.3 mg/kg, po qd qd for 6 days administered under fed condition measured after 6 days; type: ADME, organism-based; design: dose 13.3 mg/kg, route oral; settings: in vivo
[7] = Cmax in monkeypox virus infected cynomolgus monkey at 30 mg/kg, po qd for 14 days administered under fed condition measured after 14 days; type: ADME, organism-based, Macaca fascicularis; design: dose 30 mg/kg, route oral; settings: in vivo
[8] = AUC (0 to 24 hrs) in human at 13.3 mg/kg, po qd for 6 days administered under fed condition measured after 6 days; type: ADME, organism-based; design: time < 24 hr, dose 13.3 mg/kg, route oral; settings: plasma
[9] = Cmax in human at 13.3 mg/kg, po qd for 21 days administered under fed condition measured after 21 days; type: ADME, organism-based; design: dose 13.3 mg/kg, route oral; settings: in vivo
[10] = Cmax in monkeypox virus infected cynomolgus monkey at 10 mg/kg, po administered as single dose under fed condition measured after 1 day; type: ADME, organism-based, Macaca fascicularis; design: dose 10 mg/kg, route oral; settings: in vivo
[11] = Cmax in human at 6.7 mg/kg, po administered as single dose under fed condition measured after 1 day; type: ADME, organism-based; design: dose 6.7 mg/kg, route oral; settings: in vivo
[12] = Cmax in monkeypox virus infected cynomolgus monkey at 10 mg/kg, po qd for 14 days administered under fed condition measured after 7 days; type: ADME, organism-based, Macaca fascicularis; design: dose 10 mg/kg, route oral; settings: in vivo
[13] = Cmax in monkeypox virus infected cynomolgus monkey at 10 mg/kg, po qd for 14 days administered under fed condition measured after 14 days; type: ADME, organism-based, Macaca fascicularis; design: dose 10 mg/kg, route oral; settings: in vivo
[14] = Cmax in human at 4.2 mg/kg, po qd for 21 days administered under fed condition measured after 21 days; type: ADME, organism-based; design: dose 4.2 mg/kg, route oral; settings: in vivo
[15] = Cmax in human at 6.7 mg/kg, po qd for 21 days administered under fed condition measured after 21 days; type: ADME, organism-based; design: dose 6.7 mg/kg, route oral; settings: in vivo
[16] = AUC (0 to 24 hrs) in human at 6.7 mg/kg, po qd for 21 days administered under fed condition measured after 21 days; type: ADME, organism-based; design: time < 24 hr, dose 6.7 mg/kg, route oral; settings: plasma
[17] = AUC (0 to 24 hrs) in monkeypox virus infected cynomolgus monkey at 10 mg/kg, po qd for 14 days administered under fed condition measured after 7 days; type: ADME, organism-based, Macaca fascicularis; design: time < 24 hr, dose 10 mg/kg, route oral; settings: plasma
[18] = AUC (0 to 24 hrs) in monkeypox virus infected cynomolgus monkey at 30 mg/kg, po qd for 14 days administered under fed condition measured after 14 days; type: ADME, organism-based, Macaca fascicularis; design: time < 24 hr, dose 30 mg/kg, route oral; settings: plasma
[19] = AUC (0 to 24 hrs) in monkeypox virus infected cynomolgus monkey at 20 mg/kg, po administered as single dose under fed condition measured after 1 day; type: ADME, organism-based, Macaca fascicularis; design: time < 24 hr, dose 20 mg/kg, route oral; settings: plasma
[20] = AUC (0 to 24 hrs) in human at 13.3 mg/kg, po administered as single dose under fed condition measured after 1 day; type: ADME, organism-based; design: time < 24 hr, dose 13.3 mg/kg, route oral; settings: plasma
[21] = Cmax in human at 13.3 mg/kg, po administered as single dose under fed condition measured after 1 day; type: ADME, organism-based; design: dose 13.3 mg/kg, route oral; settings: in vivo
[22] = AUC (0 to 24 hrs) in human at 13.3 mg/kg, po qd for 21 days administered under fed condition measured after 21 days; type: ADME, organism-based; design: time < 24 hr, dose 13.3 mg/kg, route oral; settings: plasma
[23] = AUC (0 to 24 hrs) in monkeypox virus infected cynomolgus monkey at 10 mg/kg, po qd for 14 days administered under fed condition measured after 14 days; type: ADME, organism-based, Macaca fascicularis; design: time < 24 hr, dose 10 mg/kg, route oral; settings: plasma
[24] = Cmax in human at 6.7 mg/kg, po qd for 6 days administered under fed condition measured after 6 days; type: ADME, organism-based; design: dose 6.7 mg/kg, route oral; settings: in vivo
[25] = AUC (0 to 24 hrs) in monkeypox virus infected cynomolgus monkey at 30 mg/kg, po administered as single dose under fed condition measured after 1 day; type: ADME, organism-based, Macaca fascicularis; design: time < 24 hr, dose 30 mg/kg, route oral; settings: plasma
[26] = Cmax in human at 4.2 mg/kg, po qd for 6 days administered under fed condition measured after 6 days; type: ADME, organism-based; design: dose 4.2 mg/kg, route oral; settings: in vivo
[27] = AUC (0 to 24 hrs) in human at 6.7 mg/kg, po administered as single dose under fed condition measured after 1 day; type: ADME, organism-based; design: time < 24 hr, dose 6.7 mg/kg, route oral; settings: plasma
[28] = Cmax in monkeypox virus infected cynomolgus monkey at 20 mg/kg, po administered as single dose under fed condition measured after 1 day; type: ADME, organism-based, Macaca fascicularis; design: dose 20 mg/kg, route oral; settings: in vivo
[29] = Cmax in monkeypox virus infected cynomolgus monkey at 30 mg/kg, po qd for 14 days administered under fed condition measured after 7 days; type: ADME, organism-based, Macaca fascicularis; design: dose 30 mg/kg, route oral; settings: in vivo
[30] = Cmax in monkeypox virus infected cynomolgus monkey at 30 mg/kg, po administered as single dose under fed condition measured after 1 day; type: ADME, organism-based, Macaca fascicularis; design: dose 30 mg/kg, route oral; settings: in vivo
[31] = AUC (0 to 24 hrs) in human at 4.2 mg/kg, po qd for 21 days administered under fed condition measured after 21 days; type: ADME, organism-based; design: time < 24 hr, dose 4.2 mg/kg, route oral; settings: plasma
[32] = Cmax in human at 4.2 mg/kg, po administered as single dose under fed condition measured after 1 day; type: ADME, organism-based; design: dose 4.2 mg/kg, route oral; settings: in vivo

Compound O=C(NN1C(=O)[C@@H]2[C@@H]3C=C[C@@H]([C@H]4C[C@@H]34)[C@@H]2C1=O)c1ccc(C(F)(F)F)cc1 [TECOVIRIMAT] has an AUC at 24 h [1] of 15400 ng·h/mL, an AUC(0-t) at 24 h [2] of 13700 ng·h/mL and an AUC at 24 h [3] of 20700 ng·h/mL. The AUC at 24 h [4] was 11900 ng·h/mL, the AUC(0-t) at 24 h [5] was 9100 ng·h/mL and the Cmax [6] was 2340 ng/mL. The Cmax [7] was 1190 ng/mL, the AUC at 24 h [8] was 23400 ng·h/mL and the Cmax [9] was 2440 ng/mL. For the same compound, the Cmax [10] was 1010 ng/mL, the Cmax [11] was 1390 ng/mL and the Cmax [12] was 1020 ng/mL. It also gave a Cmax [13] of 1080 ng/mL, a Cmax [14] of 1100 ng/mL and a Cmax [15] of 1460 ng/mL. It also gave an AUC at 24 h [16] of 16200 ng·h/mL, an AUC at 24 h [17] of 12600 ng·h/mL and an AUC at 24 h [18] of 15800 ng·h/mL. It also gave an AUC(0-t) at 24 h [19] of 18400 ng·h/mL, an AUC(0-t) at 24 h [20] of 21000 ng·h/mL and a Cmax [21] of 2280 ng/mL. It also gave an AUC at 24 h [22] of 22700 ng·h/mL, an AUC at 24 h [23] of 13500 ng·h/mL and a Cmax [24] of 1300 ng/mL. For the same compound, the AUC(0-t) at 24 h [25] was 18100 ng·h/mL, the Cmax [26] was 1210 ng/mL and the AUC(0-t) at 24 h [27] was 13100 ng·h/mL. For the same compound, the Cmax [28] was 1260 ng/mL, the Cmax [29] was 1510 ng/mL and the Cmax [30] was 1150 ng/mL. It also gave an AUC at 24 h [31] of 10100 ng·h/mL and a Cmax [32] of 985 ng/mL.
